From DBAASP
≈ marks a conversion by molar mass, not a printed value. Where “and” joins values, the source holds several entries; their conditions need not be identical. Equal entries are not always repeated.

Columns and labels:
Experiment in all cases: ≥ marks a high value that may be exact or a test limit, other limits are often not marked, values filed in µg/mL are converted to µM
[1] = system: Staphylococcus aureus ATCC 25923
[2] = system: Candida albicans ATCC 20032
[3] = system: Listeria monocytogenes EGD
[4] = system: Escherichia coli ML-35p
[5] = system: Pseudomonas aeruginosa Ps4
[6] = system: Escherichia coli ATCC 25922
[7] = system: Pseudomonas aeruginosa PAO1
[8] = system: Escherichia coli MG1655
[9] = system: Candida albicans
[10] = system: Bacillus subtilis ATCC 6633
[11] = system: Corynebacterium glutamicum MTCC 2679
[12] = system: Enterococcus faecalis MTCC 439
[13] = system: Alcaligenes faecalis MTCC 1937
[14] = system: Proteus mirabilis MTCC 3158
[15] = system: Acinetobacter baumannii MTCC 9829
[16] = system: Salmonella enterica subsp. enterica serovar Typhimurium ATCC 14028
[17] = system: Stenotrophomonas maltophilia MTCC 1890
[18] = system: Shigella boydii MTCC 11947
[19] = system: Klebsiella pneumoniae MTCC 7407
[20] = system: Citrobacter koseri MTCC 1657
[21] = system: Pseudomonas aeruginosa MTCC 3542
[22] = system: Citrobacter freundii MTCC 1658
[23] = system: Klebsiella aerogenes MTCC 111
[24] = system: Shigella flexneri MTCC 1457
[25] = system: Salmonella enterica MTCC 9844
[26] = system: Haemophilus influenzae MTCC 621
[27] = system: Alkalihalobacillus alcalophilus MTCC 860
[28] = system: Staphylococcus haemolyticus MTCC 3383
[29] = system: Proteus vulgaris MTCC 1771
[30] = system: Pluralibacter gergoviae MTCC 3826
[31] = system: Escherichia coli K12 MG1655
[32] = system: Klebsiella oxytoca MTCC 2275
[33] = system: Vibrio cholerae MTCC 3904
[34] = system: Staphylococcus aureus MTCC 3160
[35] = system: Bordetella bronchiseptica MTCC 6837

For `CC[C@H](C)[C@@H]1NC(=O)[C@H](CO)NC(=O)[C@H](CCCCN)NC(=O)[C@H]([C@@H](C)O)NC(=O)[C@H](Cc2c[nH]c3ccccc23)NC(=O)[C@@H](NC(=O)CNC(=O)[C@H](CCCN=C(N)N)NC(=O)[C@H](CC(C)C)NC(=O)[C@H](C)NC(=O)[C@H](C)N)CSSC[C@@H](C(=O)N[C@@H](CO)C(=O)NCC(=O)N[C@@H](CCCCN)C(=O)N[C@@H](CCCN=C(N)N)C(=O)O)NC(=O)[C@@H]2CCCN2C(=O)[C@H](CCCCN)NC(=O)[C@@H]2CCCN2C(=O)[C@@H]2CCCN2C1=O` [AALRGCWTKSIPPKPCSGKR], the MIC [1] was 5.8 µM (≈ 12.5 µg/mL) and the MIC [2] was 23.1 µM (≈ 49.8 µg/mL).
`CC[C@H](C)[C@@H]1NC(=O)[C@H](CCCN=C(N)N)NC(=O)[C@@H]2CSSC[C@@H]3NC(=O)[C@H]([C@@H](C)O)NC(=O)CNC(=O)[C@H](Cc4ccc(O)cc4)NC(=O)[C@H](CCCN=C(N)N)NC(=O)[C@H](CCCN=C(N)N)NC(=O)[C@H](CCC(=O)O)NC(=O)CNC(=O)[C@H](C)NC(=O)[C@H](Cc4ccccc4)NC(=O)[C@H](CSSC[C@H](NC(=O)[C@H](Cc4ccccc4)NC(=O)[C@H](C)NC(=O)[C@H](Cc4c[nH]c5ccccc45)NC(=O)[C@H](C(C)C)NC(=O)[C@H](CCCN=C(N)N)NC(=O)CNC(=O)[C@H](CC(C)C)NC(=O)[C@H](Cc4ccc(O)cc4)NC(=O)[C@H](Cc4ccccc4)NC3=O)C(=O)N[C@H](C(=O)O)CSSC[C@H](NC(=O)[C@H](C)N)C(=O)N[C@@H](Cc3ccc(O)cc3)C(=O)N2)NC(=O)[C@H](C)NC(=O)[C@@H]2CCCN2C1=O` [ACYCRIPACFAGERRYGTCFYLGRVWAFCC] was tested, and the MIC [3] was 2.2 µM and 1.8 µM and the MIC [4] was 2.4 µM and 7.1 µM.
`CC[C@H](C)[C@H](NC(=O)[C@H](CCCCN)NC(=O)[C@H](CCCN=C(N)N)NC(=O)[C@H](CCC(N)=O)NC(=O)[C@H](Cc1c[nH]c2ccccc12)NC(=O)[C@@H](N)Cc1ccccc1)C(=O)N[C@@H](CCCN=C(N)N)C(=O)N[C@@H](CCCCN)C(=O)N[C@H](C(=O)N[C@@H](CCCCN)C(=O)N[C@@H](CCCCN)C(N)=O)C(C)C` [FWQRKIRKVKK] was tested, and the MIC [5] was ≥ 165 µM.
In the case of `CC[C@H](C)[C@H](NC(=O)[C@H](CCCN=C(N)N)NC(=O)[C@@H](NC(=O)[C@H](CC(N)=O)NC(=O)[C@H](CCCN=C(N)N)NC(=O)[C@H](CCC(N)=O)NC(=O)[C@H](Cc1c[nH]c2ccccc12)NC(=O)[C@@H](N)Cc1ccccc1)[C@@H](C)CC)C(=O)N[C@@H](CCCN=C(N)N)C(=O)N[C@@H](CCCN=C(N)N)C(N)=O` [FWQRNIRIRR], the MIC [5] is reported as ≥ 173 µM and the MIC [6] is reported as 86.5 µM (≈ 125 µg/mL).
For `CC[C@H](C)[C@H](NC(=O)[C@@H]1CCCN1C(=O)[C@H](CCCN=C(N)N)NC(=O)[C@H](CCC(N)=O)NC(=O)[C@H](Cc1c[nH]c2ccccc12)NC(=O)[C@@H](N)Cc1ccccc1)C(=O)N[C@@H](CCCN=C(N)N)C(=O)N[C@@H](CCCCN)C(=O)N[C@H](C(=O)N[C@@H](CCCN=C(N)N)C(N)=O)C(C)C` [FWQRPIRKVR], the MIC [5] was ≥ 180 µM.
Compound `CSCC[C@H](NC(=O)[C@@H](NC(=O)[C@H](CCCCN)NC(=O)[C@H](C)NC(=O)[C@H](CC(C)C)NC(=O)CN)C(C)C)C(=O)N[C@@H](CCCN=C(N)N)C(=O)N[C@@H](CCCCN)C(=O)N[C@H](C(=O)N[C@@H](CC(C)C)C(=O)NCC(=O)N[C@@H](Cc1ccc(O)cc1)C(=O)N[C@@H](CC(C)C)C(=O)N[C@@H](CCCN=C(N)N)C(=O)N[C@@H](CC(N)=O)C(=O)N[C@H](C(=O)N[C@@H](Cc1ccc(O)cc1)C(=O)N[C@@H](CCCCN)C(N)=O)C(C)C)C(C)C` [GLAKVMRKVLGYLRNVYK] has an MIC [1] of 5.66 µM (≈ 11.9 µg/mL), an MIC [7] of 8 µM (≈ 16.9 µg/mL) and an MIC [8] of 2.83 µM (≈ 5.96 µg/mL). The MIC [9] was 22.6 µM (≈ 47.7 µg/mL).
For `CC[C@H](C)[C@H](N)C(=O)N[C@@H](CC(C)C)C(=O)NCC(=O)N1CCC[C@H]1C(=O)N[C@H](C(=O)N[C@H](C(=O)N[C@@H](CO)C(=O)N[C@H](C(=O)N[C@H](C(=O)NCC(=O)N[C@@H](CC(N)=O)C(=O)N[C@@H](C)C(=O)N[C@@H](CC(C)C)C(=O)NCC(=O)NCC(=O)N[C@@H](CC(C)C)C(=O)N[C@@H](CC(C)C)C(=O)N[C@@H](CCCCN)C(=O)N[C@@H](CC(N)=O)C(=O)N[C@@H](CC(C)C)C(N)=O)[C@@H](C)CC)[C@@H](C)O)[C@@H](C)CC)C(C)C` [ILGPVISTIGNALGGLLKNL], the MIC [1] was > 50.9 µM, the MIC [10] was ≥ 50.9 µM and the MIC [2] was ≥ 50.9 µM. For the same compound, the MIC [6] was > 50.9 µM.
With `CC[C@H](C)[C@H](N)C(=O)N[C@@H](CC(C)C)C(=O)NCC(=O)N1CCC[C@H]1C(=O)N[C@H](C(=O)N[C@@H](CC(C)C)C(=O)NCC(=O)N[C@@H](CC(C)C)C(=O)N[C@H](C(=O)N[C@@H](CO)C(=O)N[C@@H](CC(N)=O)C(=O)N[C@@H](C)C(=O)N[C@@H](CC(C)C)C(=O)NCC(=O)NCC(=O)N[C@@H](CC(C)C)C(=O)N[C@@H](CC(C)C)C(N)=O)C(C)C)C(C)C` [ILGPVLGLVSNALGGLL] the MIC [1] was > 62.3 µM, the MIC [10] was ≥ 62.3 µM and the MIC [2] was ≥ 62.3 µM. The MIC [6] was > 62.3 µM.
For `CC[C@H](C)[C@H](NC(=O)[C@@H](NC(=O)[C@H](C)NC(=O)[C@H](Cc1cnc[nH]1)NC(=O)[C@H](CC(C)C)NC(=O)[C@H](CCCN=C(N)N)NC(=O)[C@H](C)NC(=O)[C@H](Cc1ccc(O)cc1)NC(=O)[C@@H](NC(=O)[C@@H](N)CCCCN)C(C)C)C(C)C)C(=O)N[C@@H](CCCCN)C(=O)N[C@@H](CCCN=C(N)N)C(=O)N[C@@H](CC(C)C)C(=O)N[C@@H](Cc1cnc[nH]1)C(=O)N[C@@H](CCCN=C(N)N)C(=O)N[C@@H](CCCN=C(N)N)C(=O)N[C@@H](CC(C)C)C(=O)N[C@@H](Cc1cnc[nH]1)C(=O)O` [KVYARLHAVIKRLHRRLH], the MIC [11] was 0.882 µM (≈ 2 µg/mL), the MIC [12] was ≥ 56.5 µM and the MIC [13] was ≥ 56.5 µM. For the same compound, the MIC [14] was ≥ 56.5 µM, the MIC [15] was 14.1 µM (≈ 32 µg/mL) and the MIC [16] was 14.1 µM (≈ 32 µg/mL). For the same compound, the MIC [17] was ≥ 56.5 µM, the MIC [18] was 3.53 µM (≈ 8 µg/mL) and the MIC [19] was ≥ 56.5 µM. For the same compound, the MIC [20] was 14.1 µM (≈ 32 µg/mL), the MIC [21] was ≥ 56.5 µM and the MIC [22] was 14.1 µM (≈ 32 µg/mL). For the same compound, the MIC [23] was ≥ 56.5 µM, the MIC [24] was 1.76 µM (≈ 4 µg/mL) and the MIC [25] was 14.1 µM (≈ 32 µg/mL). It also gave an MIC [26] of 1.76 µM (≈ 4 µg/mL), an MIC [27] of 14.1 µM (≈ 32 µg/mL) and an MIC [28] of 1.76 µM (≈ 4 µg/mL). The MIC [29] was ≥ 56.5 µM, the MIC [30] was ≥ 56.5 µM and the MIC [31] was 7.06 µM (≈ 16 µg/mL). For the same compound, the MIC [32] was 3.53 µM (≈ 8 µg/mL), the MIC [33] was ≥ 56.5 µM and the MIC [34] was ≥ 56.5 µM. It also gave an MIC [35] of 1.76 µM (≈ 4 µg/mL).
`CC[C@H](C)[C@H](NC(=O)[C@H](CC(N)=O)NC(=O)[C@H](CCCN=C(N)N)NC(=O)[C@H](CCC(N)=O)NC(=O)[C@H](Cc1c[nH]c2ccccc12)NC(=O)[C@@H](N)CCCCN)C(=O)N[C@@H](CCCN=C(N)N)C(=O)N[C@@H](CCCCN)C(=O)N[C@H](C(=O)N[C@@H](CCCN=C(N)N)C(=O)N[C@@H](CCCN=C(N)N)C(N)=O)C(C)C` [KWQRNIRKVRR] was tested, and the MIC [5] was ≥ 162 µM.
